Type in all cases: cell-based
One series deals with HSV-2. Put plainly: Plaque Reduction Test for Herpes Simplex Virus 2 (strain MS) in MRC-5 cells. The conditions noted are these: Human alphaherpesvirus 2, MRC5. Here is the method:
(§1) MRC-5 cells were grown to confluence in 24 well multi-dishes (well diameter=1.5 cm). The drained cell monolayers were each infected with approximately 50 infectious particles of herpes simplex virus 1 (HSV-1; strain SC16) or herpes simplex virus 2 (HSV-2; strain MS) in 100 μl of phosphate-buffered saline. The virus was adsorbed for 1 hour at room temperature. After adsorption, residual inoculum was removed from each well and replaced with 0.5 ml of Eagle's MEM containing 5% newborn calf serum and 0.9% agarose (A37). Once the agarose had set, dilutions of the test compound, which had been prepared in Eagle's MEM (containing 5% newborn calf serum), were added, each well receiving 0.5 ml of liquid overlay. The test compound was diluted to give the following series of concentrations: 200, 60, 20, 6 . . . 0.06 μg/ml; final concentrations in the assay ranged, therefore, between 100 μg/ml and 0.03 μg/ml. The infected cultures were incubated at 37° C. in a humidified atmosphere of 5% CO2 until plaques were clearly visible (usually 1 day).
(§2) Cultures from 1 and 2 were fixed in formal saline, the agarose overlays were carefully washed off, and then the cell monolayers were stained with carbol fuchsin. A stereo microscope was used to count plaques. The IC50 (concentration of drug which inhibits the number of plaques formed by 50% relative to the number of plaques observed in virus control monolayers) of the test compound was calculated. In addition, the monolayers were examined for evidence of drug-induced cytotoxicity; the minimum concentration at which cytotoxicity occurs was recorded.
For orientation: Plaques are areas of infected cells; plaque reduction assays count them against a control.

Another series deals with VZV. As to the kind of experiment: Plaque Reduction Test for Varicella-Zoster Virus (Ellen strain) in MRC-5 cells. The note with it: Human alphaherpesvirus 3, MRC5. The procedure: as §1, with “varicella zoster” for “herpes simplex”, “(VZV; Ellen strain)” for “1 (HSV-1; strain SC16) or herpes simplex virus 2 (HSV-2; strain MS)”, “heat-inactivated foetal” for “newborn”, “(5 or 6 days).” for “(usually 1 day).”
as §2

Series [1] is described as follows: Cell cytotoxicity test (MTT) in peripheral human lymphocytes. The procedure:
Peripheral human lymphocytes were isolated by density gradient centrifugation from blood donations of healthy volunteers. The `buffy coat`-fractions of these donations were provided by blood donation centres.
The buffy coat was diluted 1:1 with sterile phosphate buffered saline (PBS; 50 mM sodium phosphate, pH 7.4, 0,9% sodium chloride) and subsequently layered over Ficoll. Following centrifugation (30 minutes at 400×g) the supernatant was discarded and the interphase containing the lymphocytes was recovered. The lymphocytes were washed two times in PBS and were resuspended finally in cell culture medium.
A viability staining was performed by means of the trypan blue dye-exclusion method. The concentration of cells in the suspension and the percentage of viable cells were calculated. […]
The lymphocytes were cultivated in an incubator with a humidified atmosphere and 5% CO2 for 48 to 64 hours at 37° C. Following this incubation period, cells were harvested by centrifugation, resuspended in cell culture medium and counted. […]
Survival and proliferation of the lymphocytes grown in the presence of the compound were measured by a quantitative colorimetric assay. […] The amount of product which is a function of cell number and metabolic cellular activity was quantified photometrically. By this assay, potential cytotoxic and cytostatic effects of compounds towards lymphocytes were detected precisely. […]

These results are taken from patent US5356886A, “Antiviral phosphono-alken derivatives of purines” (Beecham Group p.l.c., priority 1990, dated 1994).

The term IC50 denotes the concentration that inhibits the measured activity by half. The low end stands for greater potency, the high end for weaker potency. Broadly, the CC50 is the concentration giving 50% cytotoxicity.

Structures are written as SMILES.

For the compound `Nc1nc2c(ncn2OCC/C=C/P(=O)(O)O)c(=O)[nH]1` [Example 1, (E)-9-(4-phosphonobut-3-enyloxy)guanine], the half-inhibitory concentration (IC50) in the series on HSV-2 and in the series with VZV was below 3 µg/mL each time. This compound also registered a half-maximal cytotoxic concentration (CC50) at 96 h in series [1] of 1 µM. Moreover, in series [1] (at 0.1 μM, read-out: Slight toxicity (inhibition)), the cytotoxicity at 0.1 µM turned out to be 18%.
